Results reported in patent US7563791B2, “Pyrrolotriazine derivatives useful for treating hyper-proliferative disorders and diseases associated with angiogenesis” (Bayer Pharmaceuticals Corporation, priority 2004, dated 2009).

Tests used:
Assay type in all cases: cell-based
HCT116 cells = assay: Tumor cell proliferation (Alamar Blue), HCT116; settings: Homo sapiens, HCT-116, 72 h
Outline: (§1)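 Cells seeded at 3.0×10^3/well in RPMI with 10% FBS for 16 h, then treated with compound (added medium held 40 μM to 18 nM compound, 0.4% DMSO) for 72 h at 37 °C, 5% CO2. Viability by Alamar Blue, 3 h, fluorescence 544/590 nm. IC50 by linear regression of log concentration versus percent inhibition.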

[1] = test system: VEGF stimulated Phospho-ERK in HUVEC; assay: Growth factor stimulated p-ERK assay in HUVECs (VEGF stimulation, ERK1/2 Bioplex); settings: Homo sapiens, @ 100 nM, compound 2 hrs, then 50 ng/ml VEGF 10 min
Outline: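 HUVECs in serum-free RPMI 1640/0.1% BSA pretreated with compound 2 hrs, then stimulated 10 min with 50 ng/ml VEGF (or bFGF). Lysate phospho-ERK1/2 quantified by bead-based Bio-Plex immunoassay on Luminex.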

[2] = test system: histone 3 phosphorylation in colon carcinoma (HCT116); assay: p-Histone3 assay: inhibition of histone 3 phosphorylation in HCT116; settings: Homo sapiens, HCT-116, 24 h, HCT116, 24 hours compound treatment
Experimental: Compounds were assayed for the inhibition of histone 3 phosphorylation in colon carcinoma (HCT116). Briefly, 20,000 cells/well were seeded in a 96-well black-walled, poly-d-lysine plates in RPMI+10% FBS and incubated at 37° C. in 5% CO2 overnight. The following day, the cells were treated with compounds for 24 hours at 37° C. Following compound treatment; plates were centrifuged at 1000 rpm for 2 minutes and washed twice with 100 μl of cold sterile TBS. Cells were then fixed with cold 3.7% formaldehyde in TBS (4° C. for 1 hour) and then permeabolized with 0.1% Triton-X-100 in TBS (room temperature for 30 minutes). Plates were then washed with of 0.25% BSA-TBS and blocked with BSA solution for 1 hour at room temperature while shaking. The supernatant was removed and replaced with diluted primary antibody (anti-phospho-histone 3, serine 10, Cell Signaling) at 1:250 in 0.25% BSA-TBS and incubated overnight at 4° C. The plates were washed and treated with diluted secondary antibody (anti-rabbit Eu-labeled) at 1:10000 in 0.25% BSA-TBS (room temperature for 1 hour). The antibody solution was removed from each well and washed eight times. The wash buffer was replaced with 50 μl pre-warmed enhancement solution and mixed on the orbital shaker for 10 minutes. Fluorescence was detected with a Victor V Fluorescence Detector. The data are expressed as percent inhibition: % inhibition=100−((Signal with inhibitor-background)/(Signal without inhibitor-background))×100.

MDA-MB-231 cells = assay: Tumor cell proliferation (Alamar Blue), MDA-MB-231; settings: Homo sapiens, MDA-MB-231, 72 h
Outline: as §1

For `CNC(=O)c1cn2ncnc(N)c2c1-c1ccc(NC(=O)Nc2cc(C(F)(F)F)ccc2F)cc1` [Example 59, 4-amino-5-{4-[({[2-fluoro-5-(trifluoromethyl)phenyl]amino}carbonyl)amino]phenyl}-N-methylpyrrolo[2,1-f][1,2,4]triazine-6-carboxamide], the IC50 (HCT116 cells) was > 0.5 µM, the IC50 (HCT116 cells; bounds given in μM) was < 1.5 µM and the inhibition at 0.1 µM [1] was > 50%. For the same compound, the IC50 [2] was > 0.5 µM, the IC50 ([2]; bound given in μM) was < 1 µM and the IC50 (MDA-MB-231 cells) was > 0.5 µM. For the same compound, the IC50 (MDA-MB-231 cells; bounds given in μM) was < 1.5 µM.

With `Nc1ncnn2cc(C(=O)NCC(F)(F)F)c(-c3ccc(NC(=O)Nc4cccc(C(F)(F)F)n4)cc3)c12` [Example 139, 4-amino-N-(2,2,2-trifluoroethyl)-5-{4-[({[6-(trifluoromethyl)pyridin-2-yl]amino}carbonyl)amino]phenyl}pyrrolo[2,1-f][1,2,4]triazine-6-carboxamide] the IC50 [2] was < 0.5 µM.

In the case of `CC(C)(C)CNC(=O)c1cn2ncnc(N)c2c1-c1ccc(NC(=O)Nc2cccc(C(F)(F)F)n2)cc1` [Example 165, 4-amino-N-(2,2-dimethylpropyl)-5-{4-[({[6-(trifluoromethyl)pyridin-2-yl]amino}carbonyl)amino]phenyl}pyrrolo[2,1-f][1,2,4]triazine-6-carboxamide], the IC50 [2] is reported as < 0.5 µM.

With `CC(C)(C)NC(=O)c1cn2ncnc(N)c2c1-c1ccc(NC(=O)Nc2cccc(C(F)(F)F)n2)cc1` [Example 164, 4-amino-N-(tert-butyl)-5-{4-[({[6-(trifluoromethyl)pyridin-2-yl]amino}carbonyl)amino]phenyl}pyrrolo[2,1-f][1,2,4]triazine-6-carboxamide] the IC50 [2] was < 0.5 µM.

In the case of `CSCCCNC(=O)c1cn2ncnc(N)c2c1-c1ccc(NC(=O)Nc2cccc(C(F)(F)F)n2)cc1` [Example 204, 4-amino-N-[3-(methylthio)propyl]-5-{4-[({[6-(trifluoromethyl)pyridin-2-yl]amino}carbonyl)amino]phenyl}pyrrolo[2,1-f][1,2,4]triazine-6-carboxamide], the IC50 [2] is reported as > 0.5 µM and the IC50 ([2]; bound given in μM) is reported as < 1 µM.

With `CCOC(=O)c1cn2ncnc(N)c2c1-c1ccc(NC(=O)Nc2cccc(Oc3ccccc3)c2)cc1` [Example 171, ethyl 4-amino-5-[4-({[(3-phenoxyphenyl)amino]carbonyl}amino)phenyl]pyrrolo[2,1-f][1,2,4]triazine-6-carboxylate] the IC50 [2] was < 0.5 µM.

`CCOC(=O)c1cn2ncnc(N)c2c1-c1ccc(NC(=O)Nc2ccc3c(c2)OCO3)cc1` [Example 13, ethyl 4-amino-5-(4-{[(1,3-benzodioxol-5-ylamino)carbonyl]amino}phenyl)pyrrolo[2,1-f][1,2,4]triazine-6-carboxylate] was tested, and the IC50 [2] was > 0.5 µM and the IC50 ([2]; bound given in μM) was < 1 µM.

In the case of `Nc1ncnn2cc(C(=O)NC3CC3)c(-c3ccc(NC(=O)Nc4cccc(C(F)(F)F)n4)cc3)c12` [Example 177, 4-amino-N-cyclopropyl-5-{4-[({[6-(trifluoromethyl)pyridin-2-yl]amino}carbonyl)amino]phenyl}pyrrolo[2,1-f][1,2,4]triazine-6-carboxamide], the IC50 [2] is reported as < 0.5 µM.

In the case of `Nc1ncnn2cc(C(=O)NCC(F)(F)F)c(-c3ccc(NC(=O)Nc4cccc(CC(F)(F)F)c4)cc3)c12` [Example 92, 4-amino-N-(2,2,2-trifluoroethyl)-5-{4-[({[3-(2,2,2-trifluoroethyl)phenyl]amino}carbonyl)amino]phenyl}pyrrolo[2,1-f][1,2,4]triazine-6-carboxamide], the IC50 [2] is reported as < 0.5 µM.
